Values of other authors, collected in patent publication US20190125725A1, “PHARMACEUTICAL COMPOSITIONS COMPRISING BRIVARACETAM” (Jubilant Generics Limited, priority 2016, published 2019).

Settings: High solubility and permeability

CCC[C@@H]1CC(=O)N([C@@H](CC)C(N)=O)C1 [Brivaracetam, (2S)-2-[(4R)-2-oxo-4-propyltetrahydro-1H-pyrrol-1-yl] butanamide]
Biopharmaceutics Classification System class: class I
